Test results taken from patent publication US11473094B2, “Methods for improving competency of plant cells” (Monsanto Technology LLC, priority 2010, dated 2022).

System: Soybean cv. A3555 dry embryos
Assay: Transformation frequency, PEG compared to other osmotic compounds
Assay type: cell-based
Conditions: 1 hour contact, AB30/OriRi
From the text: It also compares TF enhancement of treatments with various PEG species. Soybean cv. […] dry embryos were excised according to the method described in U.S. Patent Application Publication No. 2008/0280361 and contacted for an hour with various amounts of PEG-4000, PEG-6000, PEG-8000, Mannitol, Sorbitol, or Glycerol dissolved in SDW. The embryos were then rinsed 5-6× with SDW and transformed according to the methods described in U.S. Patent Application Publication No. 2009/0138985. The embryos were transformed with a 2T transformation vector having an OriRi replication of origin and contained in AB30 strain of Agrobacterium. The embryos were regenerated on spectinomycin selection medium.

SMILES | # R0 Plants (10% in SDW) | TF (10% in SDW) [%] | # R0 Plants (20% in SDW) | TF (20% in SDW) [%]
OC[C@@H](O)[C@@H](O)[C@H](O)[C@H](O)CO [mannitol, Mannitol] | 5 | 0.50 | – | –
OCC(O)CO [glycerol, Glycerol] | 4 | 2.30 | 0 | 0.00
OC[C@@H](O)[C@@H](O)[C@H](O)[C@@H](O)CO [sorbitol, Sorbitol] | 4 | 0.40 | 3 | 0.30
